Test results: publication PMC11881035, “^68Ga-Labeled Glycopeptides as Effective Tools for Liver Function Imaging” (Molecular Pharmaceutics, 2025)
Where a SMILES comes first, the peptide text is derived from it. The star is where a group is joined. X1 = O=C(CCCCc1cn([C@@H]2O[C@H](CO)[C@H](O)[C@H](O)[C@H]2O)nn1)*; NODAGA = O=C(O)CN1CCN(CC(=O)O)CCN(C(CCC(=O)*)C(=O)O)CC1; GABA = NCCCC(=O)O

System: healthy male C57BL6 mouse
Experiment: PET/MR imaging in C57BL6 mice, time activity curves
Type: in vivo
Procedure: The ^68Ge/^68Ga generator, devices for analytical HPLC, semipreparative HPLC, mass spectrometry, radio-thin layer chromatography, gamma counter and animal models for biodistribution and imaging studies including the image reconstruction procedures were the same as described before.[22] Stability assays in PBS and human blood serum, protein binding as well as determination of log D values followed established protocols.[25] Binding affinities (IC50) of selected ligands were determined in an isolated receptor-based assay according to a previously published procedure with minor modifications.[22] Dilutions of nonradioactive complexes were made with PBS + 0.1% BSA (10^–5–10^–12 M). Preparation of [^125I]I-Asialoorosomucoid which serves as the radioactive standard ligand has been published recently.[21]
Animal experiments were performed in accordance with the Austrian animal experiments law (BGBl. I Nr. 114/2012) and the institution’s animal welfare standards as approved by the Austrian Federal Ministry of Education, Science and Research (BMBWF, 2022–0.311.708). Imaging experiments were conducted at Werner Siemens Imaging Center (Tübingen, Germany) according to the German animal welfare act as approved by the local authorities (R5/19 G, R09/21 G). […]

NC(=O)CNC(=O)CNC(=O)[C@H](CCCCNC(=O)CCCCc1cn([C@@H]2O[C@H](CO)[C@H](O)[C@H](O)[C@H]2O)nn1)NC(=O)CNC(=O)CNC(=O)[C@H](CCCCNC(=O)CCCCc1cn([C@@H]2O[C@H](CO)[C@H](O)[C@H](O)[C@H]2O)nn1)NC(=O)CNC(=O)CNC(=O)[C@H](CCCCNC(=O)CCCCc1cn([C@@H]2O[C@H](CO)[C@H](O)[C@H](O)[C@H]2O)nn1)NC(=O)CNC(=O)CNC(=O)[C@H](CCCCNC(=O)CCCCc1cn([C@@H]2O[C@H](CO)[C@H](O)[C@H](O)[C@H]2O)nn1)NC(=O)CNC(=O)CNC(=O)[C@H](CCCCNC(=O)CCCCc1cn([C@@H]2O[C@H](CO)[C@H](O)[C@H](O)[C@H]2O)nn1)NC(=O)CNC(=O)CNC(=O)[C@H](CCCCNC(=O)CCCCc1cn([C@@H]2O[C@H](CO)[C@H](O)[C@H](O)[C@H]2O)nn1)NC(=O)CNC(=O)CNC(=O)[C@H](CCCCNC(=O)CCCCc1cn([C@@H]2O[C@H](CO)[C@H](O)[C@H](O)[C@H]2O)nn1)NC(=O)CNC(=O)CNC(=O)[C@H](CCCCNC(=O)CCCCc1cn([C@@H]2O[C@H](CO)[C@H](O)[C@H](O)[C@H]2O)nn1)NC(=O)CNC(=O)CNC(=O)[C@H](CCCCNC(=O)CCCCc1cn([C@@H]2O[C@H](CO)[C@H](O)[C@H](O)[C@H]2O)nn1)NC(=O)CCCNC(=O)CCC(C(=O)O)N1CCN(CC(=O)O)CCN(CC(=O)O)CC1 (some centres unmarked) [[^68Ga]Ga-NODAGA-NonaLysan, metal not drawn] ({NODAGA-GABA}-K(X1)GGK(X1)GGK(X1)GGK(X1)GGK(X1)GGK(X1)GGK(X1)GGK(X1)GGK(X1)GG-NH2)
time of fast liver accumulation (PET/MR, C57BL6 mouse, 1 MBq (100 pmol)): ≤ 2 min
time of rapid tracer accumulation in liver (time-activity curves) (followed by stable retention): ≤ 5 min
